Laboratory results published in PubChem BioAssay AID504828 (Johns Hopkins Ion Channel Center, 2011).
pIC50: −log10 of the molar value.

Molecular target: Inward rectifier potassium channel 2 (Mus musculus) (UniProt P35561)
Experiment: inhibition of mouse Kir2.1 inward rectifier channel – manual whole-cell patch clamp, extended SAR, set 1, orthogonal assay, SAR follow-up (AID 504828)
Conditions: Kir2.1-expressing cells, -100 mV

Sequence of Inward rectifier potassium channel 2 (Mus musculus) (P35561 whole entry, looked up): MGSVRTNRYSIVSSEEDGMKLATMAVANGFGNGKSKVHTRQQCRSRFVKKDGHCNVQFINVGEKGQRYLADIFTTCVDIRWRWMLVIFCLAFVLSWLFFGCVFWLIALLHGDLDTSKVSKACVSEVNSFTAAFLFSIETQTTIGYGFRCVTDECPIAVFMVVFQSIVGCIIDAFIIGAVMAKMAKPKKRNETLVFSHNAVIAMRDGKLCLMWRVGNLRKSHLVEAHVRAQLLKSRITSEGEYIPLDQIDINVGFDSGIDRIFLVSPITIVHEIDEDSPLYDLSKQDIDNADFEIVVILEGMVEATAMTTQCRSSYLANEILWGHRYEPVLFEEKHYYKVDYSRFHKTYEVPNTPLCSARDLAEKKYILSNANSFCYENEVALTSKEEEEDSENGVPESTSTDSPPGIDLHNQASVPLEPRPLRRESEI

**Q.** `CC(O)CNCCCOc1cccc(Oc2ccccc2)c1` (stereo unspecified) was tested. Which pIC50 did it give?
**A.** Its pIC50 is 5.39.

**Q.** `Cc1ccc(C)c(OCCCNCc2ccccc2)c1` was tested. Which pIC50 did it give?
**A.** Its pIC50 is 5.23.

**Q.** With `Cc1ccc2nc(NCc3ccccc3)[nH]c2c1` as the compound, how does the pIC50 read?
**A.** Its pIC50 is 4.78.

**Q.** With `Cc1noc(C)c1COC(=O)CCN1c2ccccc2Sc2ccccc21` as the compound, how does the pIC50 read?
**A.** Its pIC50 is 5.49.

**Q.** `O=S(=O)(c1ccc(F)cc1)N1CCCc2ccccc21` was tested. Which pIC50 did it give?
**A.** Its pIC50 is 4.95.

**Q.** With `CC(NS(=O)(=O)c1ccc(Br)cc1)c1ccccc1` (stereo unspecified) as the compound, how does the pIC50 read?
**A.** The pIC50 was 5.05.
